What follows are compounds tested on NCI-H295R (assay: IC50 (antiproliferative, ATP content)). Conditions: 48 h.
How it was run: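 Cell viability of adrenocortical carcinoma cells was assessed as ATP by CellTiter-Glo luminescence. Cells at 1500 per well in 1536-well plates, in serum-free DMEM with ITS, received compounds by pin transfer at 8 final concentrations (0.6 nM–46 µM) after overnight culture and were then held 48 h at 37 °C, 5% CO2. IC50 was calculated by logistic fitting against vehicle and positive-control wells, compounds with no concentration response being recorded as above the top dose.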

| Structure (SMILES) | IC50 |
| --- | --- |
| O=C(N[C@@H](CCCCN)C(N[C@@H](C(O)C)C(N[C@H](C(N[C@@H]([C@@H](O)C)C(N[C@@H](CO)C6=O)=O)=O)CC5=CC=CC=C5)=O)=O)[C@@H](NC([C@@H](NC([C@@H](NC([C@H](CC(N)=O)NC([C@H](CCCCN)NC([C@@H](NC(CNC([C@@H](N)C)=O)=O)CSSC[C@@H]([C@@](O)=O)N6)=O)=O)=O)CC4=CC=CC=C4)=O)CC3=CC=CC=C3)=O)CC1=CNC2=C1C=CC=C2 (some centres undefined) | > 46 µM |
| O=C3N1/C(=C(/Cl)CS[C@@H]1[C@@H]3NC(=O)[C@H](N)c2ccccc2)C(O)=O | > 46 µM |
| Cc1ccc(C)c(OCCCC(C)(C)C(=O)O)c1 | > 46 µM |
| COc1ccccc1N1CCN(CCCNc2cc(=O)n(C)c(=O)n2C)CC1.Cl | > 46 µM |
| Cc1[nH]c(=O)c(C#N)cc1-c1ccc2nccn2c1.Cl | > 46 µM |
| Cc1cc(C)nc(NS(=O)(=O)c2ccc(N)cc2)n1 | > 46 µM |
| Cn1c(=O)c2c(ncn2C)n(C)c1=O.O=C(O)CC(O)(CC(=O)O)C(=O)O | > 46 µM |
| O=C1CN(N=Cc2ccc(-c3ccc([N+](=O)[O-])cc3)o2)C(=O)[N-]1.[Na+] | > 46 µM |
| NC(=O)CN1CCCC1=O | > 46 µM |
| Cc1noc(NS(=O)(=O)c2ccc(N)cc2)c1C | > 46 µM |
| NC(Cc1ccccc1)C(=O)O (centres undefined) | > 46 µM |
| O=C(O)[C@H](O)c1ccccc1 | > 46 µM |
| Cc1c(NC(C)C)c(=O)n(-c2ccccc2)n1C | > 46 µM |
| COc1ncnc(NS(=O)(=O)c2ccc(N)cc2)c1OC | > 46 µM |
| CCC1(c2ccccc2)C(=O)N(COC)C(=O)N(COC)C1=O | > 46 µM |
| Cc1nc(C)c(Cl)c(O)c1Cl | > 46 µM |
| NC(=O)c1ncn([C@@H]2O[C@H](CO)[C@@H](O)[C@H]2O)c1N | > 46 µM |
| CN1CC(=O)NC1=N | > 46 µM |
| C=CCN1CCCC1CNC(=O)c1cc(S(N)(=O)=O)cc(OC)c1OC (centres undefined) | > 46 µM |
| CCCc1nc(C)c2c(=O)nc(-c3cc(S(=O)(=O)N4CCN(CC)CC4)ccc3OCC)[nH]n12.O=C(O)CC(O)(CC(=O)O)C(=O)O | > 46 µM |
| O=C(O)CCC(=O)O | > 46 µM |
| ClCC1CO1 (centres undefined) | > 46 µM |
| COc1ccc2c3c1O[C@H]1C(=O)CC[C@H]4[C@@H](C2)N(C)CC[C@]314.COc1ccc2c3c1O[C@H]1C(=O)CC[C@H]4[C@@H](C2)N(C)CC[C@]314.O=P(O)(O)O.O=P(O)(O)O.O=P(O)(O)O | > 46 µM |
| [C@@]153[C@@H](\C(O)=C(/C[C@@]1([C@H]2CC[C@]4([C@H]([C@@H]2CC3)CC[C@@H]4O)C)C)C#N)O5 | > 46 µM |
| CC(=O)O[C@@H]3C\C4=C\C[C@@H]2[C@H](CC[C@]1(C)C(=O)CC[C@H]12)[C@@]4(C)CC3 | > 46 µM |

| Structure (SMILES) | IC50 |
| --- | --- |
| C[C@@H](N)C(=O)O | > 46 µM |
| COc1ccc(C[C@H](C)NC[C@@H](O)c2ccc(O)c(NC=O)c2)cc1.COc1ccc(C[C@H](C)NC[C@@H](O)c2ccc(O)c(NC=O)c2)cc1.O=C(O)/C=C/C(=O)O | > 46 µM |
| CCOc1ccc(NC(=O)CC(C)O)cc1 (centres undefined) | > 46 µM |
| CC1Cc2ccccc2N1NC(=O)c1ccc(Cl)c(S(N)(=O)=O)c1 (centres undefined) | > 46 µM |
| CCCn1cnc2c1c(=O)n(CCCCC(C)=O)c(=O)n2C | > 46 µM |
| NS(=O)(=O)c1cc2c(cc1Cl)NC(Cc1ccccc1)NS2(=O)=O (centres undefined) | > 46 µM |
| O=C(NCCNCC(O)COc1ccc(O)cc1)N1CCOCC1 (centres undefined) | > 46 µM |
| CCN1CCC[C@H]1CNC(=O)c1c(OC)ccc(Br)c1OC | > 46 µM |
| CN1C(=O)CN2CCc3ccccc3C2c2cc(Cl)ccc21 (centres undefined) | > 46 µM |
| CCCCCCCCCCCCCC(=O)OC(C)C | > 46 µM |
| Cc1cccc(Nc2cc(Cl)nc(SCC(=O)O)n2)c1C | > 46 µM |
| CO[C@@]1(NC(=O)CSCC#N)C(=O)N2C(C(=O)[O-])=C(CSc3nnnn3C)CS[C@@H]21.[Na+] | > 46 µM |
| COc1nc(N)nc2c1ncn2[C@@H]1O[C@H](CO)[C@@H](O)[C@@H]1O | > 46 µM |
| CC(C)(C)c1ccc(C(O)CCCN2CCC(C(O)(c3ccccc3)c3ccccc3)CC2)cc1 (centres undefined) | > 46 µM |
| CN1C(=O)CC[C@H]1c1cccnc1 | > 46 µM |
| CCCNC(C)C(=O)Nc1c(C)csc1C(=O)OC.Cl (centres undefined) | > 46 µM |
| Cc1c(C)c2c(c(C)c1OC(=O)c1cccnc1)CC[C@@](C)(CCC[C@H](C)CCC[C@H](C)CCCC(C)C)O2 | > 46 µM |
| C=C1CC[C@@H]2[C@](C)(CO)[C@H](O)CC[C@@]2(C)[C@@H]1C/C=C1/C(=O)OC[C@H]1O | > 46 µM |
| O=C1c2ccccc2C(=O)C1c1ccc(Br)cc1 | > 46 µM |
| CN1CCN(c2c(F)cc3c(=O)c(C(=O)O)cn4c3c2OCN4C)CC1 | > 46 µM |
| [NH2][Pt]1([NH2])[O]C(=O)C2(CCC2)C(=O)[O]1 | > 46 µM |
| Cc1ccc(C(C)C)cc2c(C)ccc1-2 | > 46 µM |
| Cc1ccc(N(CC2=NCCN2)c2cccc(O)c2)cc1 | > 46 µM |
| Cn1nnnc1SCC1=C(C(=O)[O-])N2C(=O)[C@@H](NC(=O)[C@H](O)c3ccccc3)[C@H]2SC1.[Na+] | > 46 µM |
| COc1ccccc1OCC(O)CN1CCN(CC(=O)Nc2c(C)cccc2C)CC1 (centres undefined) | > 46 µM |

| Structure (SMILES) | IC50 |
| --- | --- |
| CCC(C(=O)OCCOCCN(CC)CC)c1ccccc1.O=C(O)CC(O)(CC(=O)O)C(=O)O (centres undefined) | > 46 µM |
| CCCC(O)C(CC)CO (centres undefined) | > 46 µM |
| COc1ccc2c(c1OC)C(=O)O[C@@H]2[C@H]1c2c(cc3c(c2OC)OCO3)CCN1C | > 46 µM |
| CCN(CC)C(C)C(=O)c1ccccc1.Cl (centres undefined) | > 46 µM |
| O=C(Nc1ccc(Cl)c(Cl)c1)C1CC1 | > 46 µM |
| Cc1cc(O)ccc1Cl | > 46 µM |
| Cc1cnc(NC(=O)C2=C(O)c3ccccc3S(=O)(=O)N2C)s1 | > 46 µM |
| CN1C(=O)C(=NNC(N)=S)c2ccccc21 | > 46 µM |
| CC(N)CCCC(C)(C)O.Cl (centres undefined) | > 46 µM |
| CCOC(=O)C1=C(C)NC(C)=C(C(=O)OC)C1c1cccc(Cl)c1Cl (centres undefined) | > 46 µM |
| Cc1cccc(C)c1NC(=O)C(C)N.Cl (centres undefined) | > 46 µM |
| Nc1ccc(S(=O)(=O)Nc2ccnn2-c2ccccc2)cc1 | > 46 µM |
| CO/N=C(/C(=O)N[C@@H]1C(=O)N2C(C(=O)[O-])=C(COC(C)=O)CS[C@H]12)c1csc(N)n1.[Na+] | > 46 µM |
| CCCNCC(O)COc1ccccc1C(=O)CCc1ccccc1 (centres undefined) | > 46 µM |
| O=C(O)c1ccc(OCCCOc2ccc(C(=O)O)cc2)cc1 | > 46 µM |
| COc1cc(N)c(Cl)cc1C(=O)NC1CCN(CCCOc2ccc(F)cc2)CC1OC (centres undefined) | > 46 µM |
| NC(N)=O | > 46 µM |
| NC(=O)c1cnccn1 | > 46 µM |
| CC(C)O | > 46 µM |
| CO[C@H]1/C=C/O[C@@]2(C)Oc3c(C)c(O)c4c(O)c(cc([O-])c4c3C2=O)NC(=O)/C(C)=C\C=C\[C@H](C)[C@H](O)[C@@H](C)[C@@H](O)[C@@H](C)[C@H](OC(C)=O)[C@@H]1C.[Na+] | > 46 µM |
| CC(C)NCC(O)COc1cccc2[nH]ccc12 (centres undefined) | > 46 µM |
| O=[C@](N[C@@H](C)CO)[C@@H](C4)C=C(C2=C1C(C3)=CNC1=CC=C2)[C@]3([H])N4C | > 46 µM |
| CN1CCN(C(c2ccccc2)c2ccccc2)CC1.Cl.Cl | > 46 µM |
| c1ccc2c(c1)OCC(CN1CCCCC1)O2 (centres undefined) | > 46 µM |
| CO[C@H]1C[C@H](O[C@H]2[C@H](C)[C@@H](O[C@@H]3O[C@H](C)C[C@H](N(C)C)[C@H]3O)[C@@H](C)C[C@]3(CO3)C(=O)[C@H](C)[C@@H](O)[C@@H](C)[C@@H](C)OC(=O)[C@@H]2C)O[C@@H](C)[C@@H]1O.O=P(O)(O)O | > 46 µM |

| Structure (SMILES) | IC50 |
| --- | --- |
| CCOC(=O)Nc1ccc2c(c1)N(C(=O)CCN1CCOCC1)c1ccccc1S2.Cl | > 46 µM |
| CCCCNc1cc(C(=O)O)cc(S(N)(=O)=O)c1Oc1ccccc1 | > 46 µM |
| Cl.NC1CCN(c2cccc(Cl)n2)CC1 | > 46 µM |
| CCCCCCCCCCC(CO)CCCCCCCC (centres undefined) | > 46 µM |
| O=C(NCC1CCCCN1)c1cc(OCC(F)(F)F)ccc1OCC(F)(F)F (centres undefined) | > 46 µM |
| CC(O)(P(=O)([O-])O)P(=O)([O-])O.[Na+].[Na+] | > 46 µM |
| C=CCN1C[C@H](C)N([C@H](c2ccc(C(=O)N(CC)CC)cc2)c2cccc(OC)c2)C[C@H]1C | > 46 µM |
| COC(=O)CCC[N+](C)(C)C.[Cl-] | > 46 µM |
| C[C@@H]1C[C@H]2[C@@H]3CCC4=CC(=O)C=C[C@]4(C)[C@@]3(F)[C@@H](O)C[C@]2(C)[C@@]1(O)C(=O)COC(=O)c1cccc(S(=O)(=O)[O-])c1.[Na+] | > 46 µM |
| CC(C)=CCC/C(C)=C/CC/C(C)=C/CC/C(C)=C/CC1=C(C)C(=O)c2ccccc2C1=O | > 46 µM |
| CC(N)C(=O)OC(C)(C)Cc1ccc(Cl)cc1 (centres undefined) | > 46 µM |
| O=C(O)Cc1nn(Cc2ccc(Br)cc2F)c(=O)c2ccccc12 | > 46 µM |
| CCCCOC(=O)c1ccc(O)cc1 | > 46 µM |
| CC1=C(/C=C/C(C)=C/C=C/C(C)=C/C=C/C=C(C)/C=C/C=C(C)/C=C/C2=C(C)C(=O)CCC2(C)C)C(C)(C)CCC1=O | > 46 µM |
| COC(F)(F)C(Cl)Cl | > 46 µM |
| COc1ccc(C2C(=O)c3ccccc3C2=O)cc1 | > 46 µM |
| CCCOc1cc(N)ccc1C(=O)OCCN(CC)CC.Cl | > 46 µM |
| Nc1nc(=O)c2nc(CNc3ccc(C(=O)N[C@@H](CCC(=O)O)C(=O)O)cc3)cnc2[nH]1 | > 46 µM |
| C[C@@H]1CCC[C@H](C)N1.Cl | > 46 µM |
| CCCOC(=O)c1ccc(N)cc1 | > 46 µM |
| CCCCNCC(O)c1ccc(O)cc1 (centres undefined) | > 46 µM |
| O=C(C)N(CC4)CCN4C(C=C5)=CC=C5OC[C@]2([H])O[C@@](OC2)(CN3C=NC=C3)[C@@]1=CC=C(Cl)C=C1Cl | > 46 µM |
| Nc1nc(O)c(-c2ccccc2)o1 | > 46 µM |
| CCCCCCCCCCCCCCCC(=O)OC[C@@H](O)[C@H]1OC[C@H](O)[C@H]1O | > 46 µM |

Reference: the supplement of paper PMC3493320
